Assay results taken from patent US20250333397A1 (REMIX THERAPEUTICS INC., priority 2021, published 2025).
Read-outs that look alike come from different tables or passages of the source.

How the values were obtained:
Type in all cases: cell-based, human
Target C mRNA = assay: RT-qPCR splicing assay panel, Target C canonical junction (CJ) mRNA; conditions: Homo sapiens, canonical junction (CJ) mRNA, RT-qPCR panel, Table 4A; read-out: Target C, decrease in CJ mRNA levels, IC50
Method: (§1) Compounds described herein were used to modulate RNA transcript abundance in cells. The expression of a target mRNA was measured by detecting the formation of an exon-exon junction in the canonical transcript (CJ). A compound mediated exon-inclusion event was detected by observing an increase in formation of a new junction with an alternative exon (AJ). Real-time qPCR assays were used to detect these splicing switches and interrogate the potency of various compounds towards different target genes. A high-throughput real time quantitative PCR (RT-qPCR) assay was developed to measure these two isoforms of the mRNA (CJ and AJ) for exemplary genes, such as HTT, SMN2, and MYB, together with a control housekeeping gene, GAPDH or GUSB or PPIA, used for normalization. Briefly, the A673 or K562 cell line was treated with various compounds described herein (e.g., compounds of Formula (I), (II), (III), (IV)). After treatment, the levels of the HTT, MYB, or SMN2 mRNA targets were determined from each sample of cell lysate by cDNA synthesis followed by qPCR.
(§2) The A673 cell line was cultured in DMEM with 10% FBS. Cells were diluted with full growth media and plated in a 96-well plate (15,000 cells in 100ul media per well). The plate was incubated at 37° C. with 5% CO2 for 24 hours to allow cells to adhere. An 11-point 3-fold serial dilution of the compounds was made in DMSO then diluted in media in an intermediate plate. Compounds were transferred from the intermediate plate to the cell plate with the top dose at a final concentration of 10 uM in the well. Final DMSO concentration was kept at or below 0.25%. The cell plate was returned to the incubator at 37° C. with 5% CO2 for an additional 24 hours.
(§3) The K562 cell line was cultured in IMDM with 10% FBS. For K562, cells were diluted with full growth media and plated in either a 96-well plate (50,000 cells in 50 uL media per well) or a 384-well plate (8,000-40,000 cells in 45 uL media per well). An 11-point 3-fold serial dilution of the compounds were made in DMSO then diluted in media in an intermediate plate.
(§4) Compound was transferred from the intermediate plate to the cell plate with the top dose at a final concentration of 10 uM in the well. Final DMSO concentration was kept at or below 0.25%.
(§5) Final volume was 100 uL for 96-well plate and 50 uL for 384-well plate. The cell plate was then placed in an incubator at 37° C. with 5% CO2 for 24 hours.
(§6) The cells were then gently washed with 50 uL-100 uL cold PBS before proceeding to addition of lysis buffer. 30 uL-50 μL of room temperature lysis buffer with DNAse I (and optionally RNAsin) was added to each well. Cells were shaken/mixed thoroughly at room temperature for 5-10 minutes for lysis to take place and then 3 uL-5 μL of room temperature stop solution was added and wells were shaken/mixed again. After 2-5 minutes, the cell lysate plate was transferred to ice for RT-qPCR reaction setup. The lysates could also be frozen at −80° C. for later use.
(§7) In some cases, a direct lysis buffer was used. An appropriate volume of 3× lysis buffer (10 mM Tris, 150 mM NaCl, 1.5%-2.5% Igepal and 0.1-1 U/uL RNAsin, pH 7.4) was directly added to either K562 or A673 cells in media and mixed by pipetting 3 times. The plates were then incubated at room temperature with shaking/rocking for 20-50 minutes to allow for lysis to take place. After this time, the cell lysate plate was transferred to ice to set up for the RT-qPCR reactions. The lysates could also be frozen at −80° C. for later use.
(§8) To set up 10 uL RT-qPCR reactions, cell lysates were transferred to 384-well qPCR plates containing the master mix according to the table below. The plates were sealed, gently vortexed, and spun down before the run. The volumes were adjusted accordingly in some instances where the reaction was carried in 20 μL. The table below summarizes the components of the RT-qPCR reactions: […]

MYB mRNA = assay: RT-qPCR splicing assay, MYB canonical (CJ) and alternative (AJ) junction mRNA; conditions: for AC50: read-out: MYB AJ (AC50, increase in AJ mRNA)
Method: as §1, §2, §3, §4, §5, §6, §7, §8

HTT mRNA = assay: RT-qPCR splicing assay, HTT canonical (CJ) and alternative (AJ) junction mRNA; conditions: for AC50: read-out: HTT AJ (AC50, increase in AJ mRNA)
Method: as §1, §2, §3, §4, §5, §6, §7, §8

SMN2 mRNA = assay: RT-qPCR splicing assay panel, SMN2 canonical junction (CJ) mRNA; conditions: canonical junction (CJ) mRNA, RT-qPCR panel, Table 4A, read-out: SMN2, decrease in CJ mRNA levels, IC50
Method: as §1, §2, §3, §4, §5, §6, §7, §8

[1] = Homo sapiens, 24 h, Table 3A, A673 or K562 cells, 24 h treatment
[2] = Homo sapiens, 24 h, Table 3A, A673 or K562 cells, 24 h treatment, read-out: MYB CJ (IC50, decrease in CJ mRNA)
[3] = Homo sapiens, canonical junction (CJ) mRNA, RT-qPCR panel, Table 4A, read-out: MYB, decrease in CJ mRNA levels, IC50
[4] = Homo sapiens, 24 h, Table 3A, A673 or K562 cells, 24 h treatment, read-out: HTT CJ (IC50, decrease in CJ mRNA)
[5] = Homo sapiens, canonical junction (CJ) mRNA, RT-qPCR panel, Table 4A, read-out: HTT, decrease in CJ mRNA levels, IC50
[6] = Table 3A, A673 or K562 cells, 24 h treatment, read-out: MYB CJ (IC50, decrease in CJ mRNA)

| SMILES | IC50 (Target C mRNA) [nM] | AC50 (MYB mRNA; [1]) [nM] | IC50 (MYB mRNA; [2]) [nM] | IC50 (MYB mRNA; [3]) [nM] | AC50 (HTT mRNA; [1]) [nM] | IC50 (HTT mRNA; [4]) [nM] | IC50 (HTT mRNA; [5]) [nM] | IC50 (SMN2 mRNA; Homo sapiens) [nM] | AC50 (MYB mRNA; Table 3A, A673 or K562 cells, 24 h treatment) [nM] | IC50 (MYB mRNA; [6]) [nM] | IC50 (HTT mRNA; Table 3A, A673 or K562 cells, 24 h treatment, read-out: HTT CJ (IC50, decrease in CJ mRNA)) [nM] | IC50 (SMN2 mRNA) [nM] |
| --- | --- | --- | --- | --- | --- | --- | --- | --- | --- | --- | --- | --- |
| COc1cc(-c2ccc(-c3ccc(N4CC[C@H](NC5(C)CCC5)C4)nn3)c(O)c2)ncn1 [Compound 384, 5-(6-methoxypyrimidin-4-yl)-2-{6-[(3S)-3-[(1-methylcyclobutyl)amino]pyrrolidin-1-yl]pyridazin-3-yl}phenol] | 100 to 1000 | 100 to 1000 | 100 to 1000 | 100 to 1000 | < 100 | < 100 | < 100 | < 100 |  |  |  |  |
| CCN(C1CCC1)[C@H]1CCN(c2ccc(-c3ccc(-c4cnnc(OC)c4)cc3O)nn2)C1 [Compound 276] | 100 to 1000 | 100 to 1000 | 100 to 1000 | 100 to 1000 | 100 to 1000 | < 100 | < 100 | < 100 |  |  |  |  |
| Cc1ncc(-c2cc(O)c(-c3ccc(N4CC[C@@H](N[C@@H](C)C5CC5)C4)nn3)cc2F)s1 [Compound 373] | < 100 | < 100 | < 100 | < 100 | < 100 | < 100 | < 100 | < 100 |  |  |  |  |
| COc1cc(-c2ccc(-c3ccc(N4CCC(C)(NC(C)C)C4)nn3)c(O)c2)cnn1 (stereo not drawn) [Compound 285, 2-{6-[3-(isopropylamino)-3-methylpyrrolidin-1-yl]pyridazin-3-yl}-5-(6-methoxypyridazin-4-yl)phenol] | < 100 | 100 to 1000 | 100 to 1000 | 100 to 1000 | < 100 | < 100 | < 100 | < 100 |  |  |  |  |
| O=c1cc(-c2cc(O)c(-c3ccc(N4CC[C@H](NC5CCC5)C4)nn3)cc2F)cc[nH]1 [Compound 221] | 1000 to 10000 | 1000 to 10000 | 100 to 1000 | 100 to 1000 | 100 to 1000 | 100 to 1000 | 100 to 1000 | < 100 |  |  |  |  |
| COc1cc(-c2cc(O)c(-c3ccc(N4CC[C@H](N(C)C(C)(C)C)C4)nn3)cc2F)cnn1 [Compound 234, 2-{6-[(3S)-3-[tert-butyl(methyl)amino]pyrrolidin-1-yl]pyridazin-3-yl}-4-fluoro-5-(6-methoxypyridazin-4-yl)phenol] |  | < 100 | < 100 |  | < 100 | < 100 |  |  |  |  |  |  |
| COc1cc(-c2ccc(-c3ccc(N4CC[C@H](NC5(CF)CC5)C4)nn3)c(O)c2)cnn1 [Compound 241, 2-{6-[(3S)-3-{[1-(fluoromethyl)cyclopropyl]amino}pyrrolidin-1-yl]pyridazin-3-yl}-5-(6-methoxypyridazin-4-yl)phenol] |  | 100 to 1000 | 100 to 1000 |  | 100 to 1000 | < 100 |  |  |  |  |  |  |
| COc1cc(-c2ccc(-c3ccc(N4CC[C@@H](N(C)C5CCC5)C4)nn3)c(O)c2)cnn1 [Compound 238, 2-{6-[(3R)-3-[cyclobutyl(methyl)amino]pyrrolidin-1-yl]pyridazin-3-yl}-5-(6-methoxypyridazin-4-yl)phenol] |  | 100 to 1000 | 100 to 1000 |  | 100 to 1000 | < 100 |  |  |  |  |  |  |
| Cn1cnc(-c2ccc(-c3ccc(N4CC[C@@H](NC(C)(C)C)C4)nn3)c(O)c2)cc1=O [Compound 237, 6-(4-{6-[(3R)-3-(tert-butylamino)pyrrolidin-1-yl]pyridazin-3-yl}-3-hydroxyphenyl)-3-methylpyrimidin-4-one] |  | 100 to 1000 | 100 to 1000 |  | < 100 | < 100 |  |  |  |  |  |  |
| Cc1ncc(-c2cc(O)c(-c3ccc(N4CC[C@H](N[C@H](C)C5CC5)C4)nn3)cc2F)s1 [Compound 394] |  |  |  |  |  |  |  |  | < 100 | < 100 | < 100 | < 100 |
| COc1cc(-c2ccc(-c3ccc(N4CC[C@H](N(C)C5CCC5)C4)nn3)c(O)c2)cnn1 [Compound 239] |  | 100 to 1000 | 100 to 1000 |  | < 100 | < 100 |  |  |  |  |  |  |
| COc1cc(-c2ccc(-c3ccc(N4CC[C@@H](NC5(CF)CC5)C4)nn3)c(O)c2)cnn1 [Compound 242, 2-{6-[(3R)-3-{[1-(fluoromethyl)cyclopropyl]amino}pyrrolidin-1-yl]pyridazin-3-yl}-5-(6-methoxypyridazin-4-yl)phenol] |  | 100 to 1000 | 100 to 1000 |  | 100 to 1000 | < 100 |  |  |  |  |  |  |
| Cc1nnc(-c2ccc(-c3ccc(N4CC[C@@H](NCC5CC5)C4)nn3)c(O)c2)s1 [Compound 416] |  |  |  |  |  |  |  |  |  | 100 to 1000 |  | < 100 |
| COc1cc(-c2cc(O)c(-c3ccc(N4CC[C@@H](N(C)C(C)(C)C)C4)nn3)cc2F)cnn1 [Compound 235, 2-{6-[(3R)-3-[tert-butyl(methyl)amino]pyrrolidin-1-yl]pyridazin-3-yl}-4-fluoro-5-(6-methoxypyridazin-4-yl)phenol] |  | 100 to 1000 | 100 to 1000 |  | < 100 | < 100 |  |  |  |  |  |  |
| Cn1cnc(-c2ccc(-c3ccc(N4CC[C@H](NC(C)(C)C)C4)nn3)c(O)c2)cc1=O [Compound 236, 6-(4-{6-[(3S)-3-(tert-butylamino)pyrrolidin-1-yl]pyridazin-3-yl}-3-hydroxyphenyl)-3-methylpyrimidin-4-one] |  | 100 to 1000 | 100 to 1000 |  | 100 to 1000 | 100 to 1000 |  |  |  |  |  |  |
